Values of other authors, collected in patent publication US6312728A, “Sustained release pharmaceutical preparation” (Cascade Development, Inc., priority 1999, dated 2001).
Where two headings read alike, the source gives them in different places.

Tests used:
[1] = patients
[2] = intravenous administration
[3] = in vivo

O=C1NC(=O)C(c2ccccc2)(c2ccccc2)N1 [phenytoin sodium]
solubility in water: much more soluble

O=C1NC(=O)C(c2ccccc2)(c2ccccc2)N1 [phenytoin, 5,5-diphenyl-2,4-imidazolidinedione]
bioavailability following oral administration [1]: great variations in bioavailability
solubility in water: poor solubility in water
solubility in water (listed as free-phenytoin): practically insoluble in water
serious adverse effects [2]: serious adverse effects, including cardiac arrhythmias and hypotensioni
half-life [3]: > 6 h
